The numbers were not newly measured in patent US20250375453A1, “HIGH-EFFICIENCY ANTIMICROBIAL COMPOSITION” (CM4CURE S.A., priority 2023, published 2025), which cites them from elsewhere.

Each structure is given as a SMILES string.

The data set deals with Enterococcus faecalis. To be noted: cited from earlier work.

Consider `[H]/N=C(\N/C(=N/[H])NCCCCCCNC(=N)NC(=N)Nc1ccc(Cl)cc1)Nc1ccc(Cl)cc1` [Chlorhexidine, chlorhexidine], for which the MIC of chlorhexdine is 4 to 16 µg/mL.
